The supplement of paper PMC10883282
± gives the standard deviation of the averaged measurements.

Assays:
Experiment in all cases: relative viability vs DMSO control (72 h) (fraction); higher = more viable cells
SW872 = test system: SW872
In short: (§1)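 Sarcoma cell lines went into 384-well plates at densities chosen to reach 80–90% confluence. After 24 h, each well received 2.5 µl of serially diluted compound, with source plates running from 10 mM to 0.0002 mM, and the plates were kept 72 h at 37 °C, 5% CO2, alongside 0.1% DMSO vehicle and a 5 µM positive control. Relative viability was derived from ATPLite readings as percent growth and averaged over up to triplicate wells. The data were then rescaled so that 1 stands for full and 0 for none.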

RD = test system: RD
In short: as §1

A204 = test system: A204
In short: as §1

VA-ES-BJ = test system: VA-ES-BJ
In short: as §1

SYO-1 = test system: SYO-1
In short: as §1

HS729 = test system: HS729
In short: as §1

KHOS-NP = test system: KHOS-NP
In short: as §1

G401 = test system: G401
In short: as §1

SK-ES-1 = test system: SK-ES-1
In short: as §1

SK-LMS-1 = test system: SK-LMS-1
In short: as §1

MES-SA = test system: MES-SA
In short: as §1

SW684 = test system: SW684
In short: as §1

Cc1[nH]c(/C=C2\C(=O)Nc3ccccc32)c(C)c1CCC(=O)O [Orantinib]
relative viability (SW872; 0.00017 µM): 1.1 ± 0.053 | relative viability (SW872; 0.00051 µM): 1.12 ± 0.083 | relative viability (SW872; 0.00152 µM): 1.09 ± 0.036 | relative viability (SW872; 0.00457 µM): 1.1 ± 0.06 | relative viability (SW872; 0.01372 µM): 1.09 ± 0.045 | relative viability (SW872; 0.04115 µM): 1.08 ± 0.03 | relative viability (SW872; 0.1235 µM): 1.06 ± 0.015 | relative viability (SW872; 0.3704 µM): 1.04 ± 0.024 | relative viability (SW872; 1.111 µM): 1.08 ± 0.03 | relative viability (SW872; 3.333 µM): 1.05 ± 0.037 | relative viability (SW872; 10 µM): 1.013 ± 0.0074 | relative viability (RD; 0.00017 µM): 1.05 ± 0.03 | relative viability (RD; 0.00051 µM): 1.08 ± 0.035 | relative viability (RD; 0.00152 µM): 1.1 ± 0.013 | relative viability (RD; 0.00457 µM): 1.12 ± 0.015 | relative viability (RD; 0.01372 µM): 1.11 ± 0.016 | relative viability (RD; 0.04115 µM): 1.09 ± 0.022 | relative viability (RD; 0.1235 µM): 1.12 ± 0.039 | relative viability (RD; 0.3704 µM): 1.11 ± 0.014 | relative viability (RD; 1.111 µM): 1.11 ± 0.03 | relative viability (RD; 3.333 µM): 1.07 ± 0.045 | relative viability (RD; 10 µM): 1.06 ± 0.033 | relative viability (A204; 0.00017 µM): 1.07 ± 0.04 | relative viability (A204; 0.00051 µM): 1.12 ± 0.014 | relative viability (A204; 0.00152 µM): 1.12 ± 0.073 | relative viability (A204; 0.00457 µM): 1.09 ± 0.036 | relative viability (A204; 0.01372 µM): 1.14 ± 0.026 | relative viability (A204; 0.04115 µM): 1.086 ± 0.0063 | relative viability (A204; 0.1235 µM): 1.13 ± 0.068 | relative viability (A204; 0.3704 µM): 1.05 ± 0.043 | relative viability (A204; 1.111 µM): 1.03 ± 0.052 | relative viability (A204; 3.333 µM): 0.976 ± 0.019 | relative viability (A204; 10 µM): 0.881 ± 0.03 | relative viability (VA-ES-BJ; 0.00017 µM): 1.11 ± 0.018 | relative viability (VA-ES-BJ; 0.00051 µM): 1.1 ± 0.015 | relative viability (VA-ES-BJ; 0.00152 µM): 1.116 ± 0.011 | relative viability (VA-ES-BJ; 0.00457 µM): 1.096 ± 0.0071 | relative viability (VA-ES-BJ; 0.01372 µM): 1.06 ± 0.045 | relative viability (VA-ES-BJ; 0.04115 µM): 1.053 ± 0.005 | relative viability (VA-ES-BJ; 0.1235 µM): 1.1 ± 0.036 | relative viability (VA-ES-BJ; 0.3704 µM): 1.07 ± 0.04 | relative viability (VA-ES-BJ; 1.111 µM): 1.028 ± 0.0071 | relative viability (VA-ES-BJ; 3.333 µM): 1.05 ± 0.016 | relative viability (VA-ES-BJ; 10 µM): 0.998 ± 0.032 | relative viability (SYO-1; 0.00017 µM): 1.012 ± 0.0092 | relative viability (SYO-1; 0.00051 µM): 1.01 ± 0.044 | relative viability (SYO-1; 0.00152 µM): 1.02 ± 0.048 | relative viability (SYO-1; 0.00457 µM): 1.02 ± 0.035 | relative viability (SYO-1; 0.01372 µM): 1.01 ± 0.023 | relative viability (SYO-1; 0.04115 µM): 1.03 ± 0.038 | relative viability (SYO-1; 0.1235 µM): 0.997 ± 0.047 | relative viability (SYO-1; 0.3704 µM): 0.979 ± 0.063 | relative viability (SYO-1; 1.111 µM): 0.973 ± 0.043 | relative viability (SYO-1; 3.333 µM): 0.945 ± 0.071 | relative viability (SYO-1; 10 µM): 0.799 ± 0.038 | relative viability (HS729; 0.00017 µM): 1.07 ± 0.053 | relative viability (HS729; 0.00051 µM): 1.09 ± 0.043 | relative viability (HS729; 0.00152 µM): 1.08 ± 0.058 | relative viability (HS729; 0.00457 µM): 1.06 ± 0.043 | relative viability (HS729; 0.01372 µM): 1.04 ± 0.072 | relative viability (HS729; 0.04115 µM): 1.04 ± 0.054 | relative viability (HS729; 0.1235 µM): 0.997 ± 0.057 | relative viability (HS729; 0.3704 µM): 0.966 ± 0.023 | relative viability (HS729; 1.111 µM): 0.923 ± 0.014 | relative viability (HS729; 3.333 µM): 0.923 ± 0.021 | relative viability (HS729; 10 µM): 0.889 ± 0.015 | relative viability (KHOS-NP; 0.00017 µM): 1.088 ± 0.0069 | relative viability (KHOS-NP; 0.00051 µM): 1.122 ± 0.0089 | relative viability (KHOS-NP; 0.00152 µM): 1.12 ± 0.012 | relative viability (KHOS-NP; 0.00457 µM): 1.12 ± 0.024 | relative viability (KHOS-NP; 0.01372 µM): 1.11 ± 0.018 | relative viability (KHOS-NP; 0.04115 µM): 1.11 ± 0.037 | relative viability (KHOS-NP; 0.1235 µM): 1.11 ± 0.044 | relative viability (KHOS-NP; 0.3704 µM): 1.1 ± 0.03 | relative viability (KHOS-NP; 1.111 µM): 1.09 ± 0.034 | relative viability (KHOS-NP; 3.333 µM): 1.1 ± 0.043 | relative viability (KHOS-NP; 10 µM): 1.08 ± 0.046 | relative viability (G401; 0.00017 µM): 1.07 ± 0.049 | relative viability (G401; 0.00051 µM): 1.11 ± 0.044 | relative viability (G401; 0.00152 µM): 1.07 ± 0.023 | relative viability (G401; 0.00457 µM): 1.08 ± 0.035 | relative viability (G401; 0.01372 µM): 1.07 ± 0.032 | relative viability (G401; 0.04115 µM): 1.04 ± 0.016 | relative viability (G401; 0.1235 µM): 1.057 ± 0.0082 | relative viability (G401; 0.3704 µM): 1.06 ± 0.036 | relative viability (G401; 1.111 µM): 1.05 ± 0.026 | relative viability (G401; 3.333 µM): 1.058 ± 0.0054 | relative viability (G401; 10 µM): 0.966 ± 0.02 | relative viability (SK-ES-1; 0.00017 µM): 1.05 ± 0.031 | relative viability (SK-ES-1; 0.00051 µM): 1.06 ± 0.03 | relative viability (SK-ES-1; 0.00152 µM): 1.06 ± 0.042 | relative viability (SK-ES-1; 0.00457 µM): 1.04 ± 0.044 | relative viability (SK-ES-1; 0.01372 µM): 1.04 ± 0.053 | relative viability (SK-ES-1; 0.04115 µM): 1.06 ± 0.089 | relative viability (SK-ES-1; 0.1235 µM): 1.02 ± 0.039 | relative viability (SK-ES-1; 0.3704 µM): 1.06 ± 0.065 | relative viability (SK-ES-1; 1.111 µM): 0.999 ± 0.067 | relative viability (SK-ES-1; 3.333 µM): 0.982 ± 0.058 | relative viability (SK-ES-1; 10 µM): 0.998 ± 0.025 | relative viability (SK-LMS-1; 0.00017 µM): 1.06 ± 0.015 | relative viability (SK-LMS-1; 0.00051 µM): 1.072 ± 0.0029 | relative viability (SK-LMS-1; 0.00152 µM): 1.06 ± 0.034 | relative viability (SK-LMS-1; 0.00457 µM): 1.04 ± 0.036 | relative viability (SK-LMS-1; 0.01372 µM): 1.05 ± 0.027 | relative viability (SK-LMS-1; 0.04115 µM): 1.07 ± 0.055 | relative viability (SK-LMS-1; 0.1235 µM): 1.04 ± 0.033 | relative viability (SK-LMS-1; 0.3704 µM): 1.032 ± 0.0044 | relative viability (SK-LMS-1; 1.111 µM): 0.994 ± 0.032 | relative viability (SK-LMS-1; 3.333 µM): 0.971 ± 0.043 | relative viability (SK-LMS-1; 10 µM): 0.8874 ± 0.0061 | relative viability (MES-SA; 0.00017 µM): 1 ± 0.035 | relative viability (MES-SA; 0.00051 µM): 0.989 ± 0.033 | relative viability (MES-SA; 0.00152 µM): 0.975 ± 0.013 | relative viability (MES-SA; 0.00457 µM): 0.968 ± 0.021 | relative viability (MES-SA; 0.01372 µM): 0.951 ± 0.042 | relative viability (MES-SA; 0.04115 µM): 0.948 ± 0.019 | relative viability (MES-SA; 0.1235 µM): 0.948 ± 0.032 | relative viability (MES-SA; 0.3704 µM): 0.953 ± 0.019 | relative viability (MES-SA; 1.111 µM): 0.941 ± 0.017 | relative viability (MES-SA; 3.333 µM): 0.941 ± 0.023 | relative viability (MES-SA; 10 µM): 0.93 ± 0.016 | relative viability (SW684; 0.00017 µM): 1.19 ± 0.053 | relative viability (SW684; 0.00051 µM): 1.19 ± 0.086 | relative viability (SW684; 0.00152 µM): 1.23 ± 0.043 | relative viability (SW684; 0.00457 µM): 1.23 ± 0.039 | relative viability (SW684; 0.01372 µM): 1.18 ± 0.078 | relative viability (SW684; 0.04115 µM): 1.18 ± 0.12 | relative viability (SW684; 0.1235 µM): 1.19 ± 0.091 | relative viability (SW684; 0.3704 µM): 1.16 ± 0.05 | relative viability (SW684; 1.111 µM): 1.12 ± 0.031 | relative viability (SW684; 3.333 µM): 1.05 ± 0.06 | relative viability (SW684; 10 µM): 0.967 ± 0.058
